Assay results from ChEMBL document CHEMBL3885861, “Open TG-GATES”.

Organism: Rattus norvegicus
Assay: Open TG-GATES - Regimen: Daily Repeat
Type: toxicity, organism-based, Sprague-Dawley
Parameters: regimen Daily Repeat, gender Male, age 6 weeks
Conditions: in vivo, po, route gavage; for APTT / Bas / Eos / Fbg / Hb / Ht / Lym / MCH / MCHC / MCV / Mono / Neu / PT / Plat / RBC / Ret / WBC: tissue Blood; for KIDNEY_L / KIDNEY_R / KIDNEY_TOTAL: tissue Kidney; for LIVER: tissue Liver; for A/G / ALP / ALT / AST / BUN / CRE / Ca / Cl / DBIL / GLC / IP / K / LDH / Na / PL / RALB / TBIL / TC / TG / TP / gamma-GTP: tissue Plasma
[1] = 150 mg/kg, 72 h, dose level Middle, time 3 day
[2] = 150 mg/kg, […], dose level Middle, time 7 day
[3] = 150 mg/kg, […], dose level Middle, time 14 day
[4] = 150 mg/kg, […], dose level Middle, time 28 day
[5] = 500 mg/kg, 72 h, dose level High, time 3 day
[6] = 500 mg/kg, […], dose level High, time 7 day
[7] = 500 mg/kg, […], dose level High, time 14 day
[8] = 500 mg/kg, […], dose level High, time 28 day

CN1C(=O)OC(C)(C)C1=O [TRIMETHADIONE]
TERMINAL_BW [1]: 237.3 g
APTT [1]: 16.6 s
Bas [1]: 0%
Eos [1]: 1.2%
Fbg [1]: 277.6 mg/dL
Hb [1]: 13.9 g/dL
Ht [1]: 41.2%
Lym [1]: 73.4%
MCH [1]: 22 pg
MCHC [1]: 33.7%
MCV [1]: 65.2 fL
Mono [1]: 2.8%
Neu [1]: 22.6%
PT [1]: 13 s
Plat [1]: 127.9 x10_4/uL
RBC [1]: 632 x10_4/ul
Ret [1]: 6.9%
WBC [1]: 82.5 x10_2/uL
KIDNEY_L [1]: 1 g
KIDNEY_R [1]: 0.9 g
KIDNEY_TOTAL [1]: 1.9 g
LIVER [1]: 11.2 g
A/G [1]: 0.8
ALP [1]: 1577 IU/L
ALT [1]: 42.4 IU/L
AST [1]: 78.2 IU/L
BUN [1]: 17.2 mg/dL
CRE [1]: 0.2 mg/dL
Ca [1]: 11.2 mg/dL
Cl [1]: 105 meq/L
DBIL [1]: 0.004 mg/dL
GLC [1]: 180.6 mg/dL
IP [1]: 6.9 mg/dL
K [1]: 4.4 meq/L
LDH [1]: 85.6 IU/L
Na [1]: 142.2 meq/L
PL [1]: 172.8 mg/dL
RALB [1]: 2.6 g/dL
TBIL [1]: 0.042 mg/dL
TC [1]: 91.4 mg/dL
TG [1]: 115.6 mg/dL
TP [1]: 5.7 g/dL
gamma-GTP [1]: 1 IU/L
TERMINAL_BW [2]: 275.1 g
TERMINAL_BW [3]: 335.8 g
TERMINAL_BW [4]: 410.9 g
APTT [2]: 22.2 s
Bas [2]: 0%
Eos [2]: 1%
Fbg [2]: 283.8 mg/dL
Hb [2]: 13.8 g/dL
Ht [2]: 40.4%
Lym [2]: 75%
MCH [2]: 21.5 pg
MCHC [2]: 34.1%
MCV [2]: 62.9 fL
Mono [2]: 2.6%
Neu [2]: 21.2%
PT [2]: 13.9 s
Plat [2]: 129.5 x10_4/uL
RBC [2]: 642.6 x10_4/ul
Ret [2]: 5.6%
WBC [2]: 92.5 x10_2/uL
APTT [3]: 25.9 s
Bas [3]: 0.2%
Eos [3]: 1%
Fbg [3]: 268.4 mg/dL
Hb [3]: 14.4 g/dL
Ht [3]: 41.6%
Lym [3]: 71.6%
MCH [3]: 20.8 pg
MCHC [3]: 34.6%
MCV [3]: 60.2 fL
Mono [3]: 2.2%
Neu [3]: 24.6%
PT [3]: 13.6 s
Plat [3]: 123.5 x10_4/uL
RBC [3]: 691.2 x10_4/ul
Ret [3]: 4.5%
WBC [3]: 132.8 x10_2/uL
APTT [4]: 21.9 s
Bas [4]: 0%
Eos [4]: 1.2%
Fbg [4]: 270.8 mg/dL
Hb [4]: 15.8 g/dL
Ht [4]: 45%
Lym [4]: 74.8%
MCH [4]: 19.6 pg
MCHC [4]: 35%
MCV [4]: 56.2 fL
Mono [4]: 2%
Neu [4]: 21.8%
PT [4]: 14.3 s
Plat [4]: 113.7 x10_4/uL
RBC [4]: 800.2 x10_4/ul
Ret [4]: 2%
WBC [4]: 103.2 x10_2/uL
KIDNEY_L [2]: 1.3 g
KIDNEY_R [2]: 1.2 g
KIDNEY_TOTAL [2]: 2.5 g
KIDNEY_L [3]: 1.4 g
KIDNEY_R [3]: 1.4 g
KIDNEY_TOTAL [3]: 2.8 g
KIDNEY_L [4]: 1.6 g
KIDNEY_R [4]: 1.7 g
KIDNEY_TOTAL [4]: 3.3 g
LIVER [2]: 13 g
LIVER [3]: 15.2 g
LIVER [4]: 16.5 g
A/G [2]: 0.9
ALP [2]: 1744.2 IU/L
ALT [2]: 51.6 IU/L
AST [2]: 85.6 IU/L
BUN [2]: 15.8 mg/dL
CRE [2]: 0.2 mg/dL
Ca [2]: 10.8 mg/dL
Cl [2]: 103.4 meq/L
DBIL [2]: 0.01 mg/dL
GLC [2]: 192.6 mg/dL
IP [2]: 6.9 mg/dL
K [2]: 4.2 meq/L
LDH [2]: 92.4 IU/L
Na [2]: 144.2 meq/L
PL [2]: 159.8 mg/dL
RALB [2]: 2.6 g/dL
TBIL [2]: 0.04 mg/dL
TC [2]: 74.2 mg/dL
TG [2]: 138.2 mg/dL
TP [2]: 5.7 g/dL
gamma-GTP [2]: 1.2 IU/L
A/G [3]: 0.8
ALP [3]: 1516.8 IU/L
ALT [3]: 46.8 IU/L
AST [3]: 73.2 IU/L
BUN [3]: 16.4 mg/dL
CRE [3]: 0.2 mg/dL
Ca [3]: 10.7 mg/dL
Cl [3]: 102.6 meq/L
DBIL [3]: 0.004 mg/dL
GLC [3]: 180.6 mg/dL
IP [3]: 6.6 mg/dL
K [3]: 4.2 meq/L
LDH [3]: 116.4 IU/L
Na [3]: 144.2 meq/L
PL [3]: 154.4 mg/dL
RALB [3]: 2.7 g/dL
TBIL [3]: 0.032 mg/dL
TC [3]: 73.2 mg/dL
TG [3]: 138.8 mg/dL
TP [3]: 6.2 g/dL
gamma-GTP [3]: 1 IU/L
A/G [4]: 0.8
ALP [4]: 1150.5 IU/L
ALT [4]: 37.8 IU/L
AST [4]: 77.5 IU/L
BUN [4]: 16 mg/dL
CRE [4]: 0.3 mg/dL
Ca [4]: 10.4 mg/dL
Cl [4]: 101.8 meq/L
DBIL [4]: 0.005 mg/dL
GLC [4]: 170.8 mg/dL
IP [4]: 5.5 mg/dL
K [4]: 4.1 meq/L
LDH [4]: 77.2 IU/L
Na [4]: 143 meq/L
PL [4]: 161 mg/dL
RALB [4]: 2.7 g/dL
TBIL [4]: 0.0325 mg/dL
TC [4]: 76.8 mg/dL
TG [4]: 146.8 mg/dL
TP [4]: 6.2 g/dL
gamma-GTP [4]: 1.2 IU/L
TERMINAL_BW [5]: 231.2 g
APTT [5]: 19.5 s
Bas [5]: 0.2%
Eos [5]: 0.6%
Fbg [5]: 280 mg/dL
Hb [5]: 13.7 g/dL
Ht [5]: 40.3%
Lym [5]: 80%
MCH [5]: 21.4 pg
MCHC [5]: 34%
MCV [5]: 63 fL
Mono [5]: 3.2%
Neu [5]: 15.6%
PT [5]: 13.3 s
Plat [5]: 127.8 x10_4/uL
RBC [5]: 640 x10_4/ul
Ret [5]: 5.1%
WBC [5]: 107.7 x10_2/uL
KIDNEY_L [5]: 1.1 g
KIDNEY_R [5]: 1 g
KIDNEY_TOTAL [5]: 2.1 g
LIVER [5]: 13.3 g
A/G [5]: 0.8
ALP [5]: 1686.2 IU/L
ALT [5]: 57.2 IU/L
AST [5]: 106.6 IU/L
BUN [5]: 16 mg/dL
CRE [5]: 0.2 mg/dL
Ca [5]: 11.2 mg/dL
Cl [5]: 99.4 meq/L
DBIL [5]: 0.006 mg/dL
GLC [5]: 169.4 mg/dL
IP [5]: 7.7 mg/dL
K [5]: 4.5 meq/L
LDH [5]: 114.8 IU/L
Na [5]: 143 meq/L
PL [5]: 160 mg/dL
RALB [5]: 2.7 g/dL
TBIL [5]: 0.04 mg/dL
TC [5]: 88.4 mg/dL
TG [5]: 70.6 mg/dL
TP [5]: 5.8 g/dL
gamma-GTP [5]: 1 IU/L
TERMINAL_BW [6]: 268.1 g
TERMINAL_BW [7]: 306.3 g
TERMINAL_BW [8]: 346.7 g
APTT [6]: 15.5 s
Bas [6]: 0.6%
Eos [6]: 0.8%
Fbg [6]: 272.6 mg/dL
Hb [6]: 13.4 g/dL
Ht [6]: 39%
Lym [6]: 70.4%
MCH [6]: 21.2 pg
MCHC [6]: 34.4%
MCV [6]: 61.8 fL
Mono [6]: 4.2%
Neu [6]: 24%
PT [6]: 14.8 s
Plat [6]: 109.8 x10_4/uL
RBC [6]: 630.8 x10_4/ul
Ret [6]: 4.4%
WBC [6]: 138.4 x10_2/uL
APTT [7]: 33.5 s
Bas [7]: 0.2%
Eos [7]: 0.4%
Fbg [7]: 282.6 mg/dL
Hb [7]: 14 g/dL
Ht [7]: 40.3%
Lym [7]: 77.2%
MCH [7]: 21.1 pg
MCHC [7]: 34.8%
MCV [7]: 60.7 fL
Mono [7]: 4.2%
Neu [7]: 17%
PT [7]: 14 s
Plat [7]: 116.4 x10_4/uL
RBC [7]: 664 x10_4/ul
Ret [7]: 4.5%
WBC [7]: 86.5 x10_2/uL
APTT [8]: 19.2 s
Bas [8]: 0.2%
Eos [8]: 0.8%
Fbg [8]: 288.6 mg/dL
Hb [8]: 15.4 g/dL
Ht [8]: 43.1%
Lym [8]: 68.2%
MCH [8]: 20.6 pg
MCHC [8]: 35.7%
MCV [8]: 57.9 fL
Mono [8]: 3.4%
Neu [8]: 27.2%
PT [8]: 14.5 s
Plat [8]: 103 x10_4/uL
RBC [8]: 744.8 x10_4/ul
Ret [8]: 2.3%
WBC [8]: 84.6 x10_2/uL
KIDNEY_L [6]: 1.2 g
KIDNEY_R [6]: 1.2 g
KIDNEY_TOTAL [6]: 2.4 g
KIDNEY_L [7]: 1.3 g
KIDNEY_R [7]: 1.3 g
KIDNEY_TOTAL [7]: 2.6 g
KIDNEY_L [8]: 1.5 g
KIDNEY_R [8]: 1.4 g
KIDNEY_TOTAL [8]: 2.9 g
LIVER [6]: 16.6 g
LIVER [7]: 17.4 g
LIVER [8]: 18.4 g
A/G [6]: 0.8
ALP [6]: 1535.2 IU/L
ALT [6]: 62.6 IU/L
AST [6]: 121 IU/L
BUN [6]: 16 mg/dL
CRE [6]: 0.2 mg/dL
Ca [6]: 10.9 mg/dL
Cl [6]: 97.2 meq/L
DBIL [6]: 0.016 mg/dL
GLC [6]: 179 mg/dL
IP [6]: 7.7 mg/dL
K [6]: 4 meq/L
LDH [6]: 81.4 IU/L
Na [6]: 146.2 meq/L
PL [6]: 166.2 mg/dL
RALB [6]: 2.8 g/dL
TBIL [6]: 0.042 mg/dL
TC [6]: 85 mg/dL
TG [6]: 96.8 mg/dL
TP [6]: 6.1 g/dL
gamma-GTP [6]: 1.6 IU/L
A/G [7]: 0.9
ALP [7]: 1426.4 IU/L
ALT [7]: 57 IU/L
AST [7]: 117.4 IU/L
BUN [7]: 16.8 mg/dL
CRE [7]: 0.2 mg/dL
Ca [7]: 10.7 mg/dL
Cl [7]: 100.6 meq/L
DBIL [7]: 0.01 mg/dL
GLC [7]: 181.6 mg/dL
IP [7]: 6.7 mg/dL
K [7]: 3.6 meq/L
LDH [7]: 127.6 IU/L
Na [7]: 146.2 meq/L
PL [7]: 169.6 mg/dL
RALB [7]: 3.1 g/dL
TBIL [7]: 0.034 mg/dL
TC [7]: 97.4 mg/dL
TG [7]: 59.2 mg/dL
TP [7]: 6.5 g/dL
gamma-GTP [7]: 1.6 IU/L
A/G [8]: 0.9
ALP [8]: 1105.4 IU/L
ALT [8]: 57.8 IU/L
AST [8]: 141.2 IU/L
BUN [8]: 15.6 mg/dL
CRE [8]: 0.3 mg/dL
Ca [8]: 10.4 mg/dL
Cl [8]: 97.8 meq/L
DBIL [8]: 0.006 mg/dL
GLC [8]: 176 mg/dL
IP [8]: 6.2 mg/dL
K [8]: 3.6 meq/L
LDH [8]: 83.2 IU/L
Na [8]: 145 meq/L
PL [8]: 155.2 mg/dL
RALB [8]: 3.1 g/dL
TBIL [8]: 0.032 mg/dL
TC [8]: 83.8 mg/dL
TG [8]: 122.8 mg/dL
TP [8]: 6.9 g/dL
gamma-GTP [8]: 1.4 IU/L
